Results on ten compounds are retold here after patent publication US11109593B2, “Isoxazolin-5-one derivative and herbicide containing same as active ingredient” (HOKKO CHEMICAL INDUSTRY CO., LTD., priority 2017, dated 2021).

Assay type in all cases: in vivo
For assay [1], the system named is Echinochloa crus-galli. The experiment in a line: Test Example 1: herbicidal effect test by treatment of rice paddy soil (immediately after seeding). In outline: (§1)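 Values are herbicidal rates (%) derived from average plant dry weight in treated versus untreated pots 14 days after treatment, run in duplicate. Treatment was a water-diluted emulsion dropped into flooded paddy soil right after sowing, at 120 g active ingredient per 10 ares.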

Assay [2] relates to Scirpus juncoides. The description is as above. In outline: as §1
For assay [3], the system named is broad leaf weeds (Lindernia pyxidaria and Monochoria vaginalis). Described as above. In outline: as §1
Assay [4] relates to Echinochloa crus-galli. The experiment in a line: Test Example 2: herbicidal effect test by treatment during growing period in paddy rice cultivation (seven days after seeding). The settings on record: for Herbicidal rate (%) Echinochloa crus-galli: 120 g/10a active ingredient, assessed 14 days after treatment, dry weight vs untreated area; for herbicidal rate, Echinochloa crus-galli: 120 g/10a, rated 14 days after treatment, paddy soil pots. In outline: (§2)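 Herbicidal rate = (1 − treated/untreated mean dry weight) × 100, scored 14 days after application, two replicates per rate. Treatment: diluted emulsion dropped onto paddy water seven days after sowing, 120 g active ingredient per 10 ares, in a glass greenhouse.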

In assay [5] the test system is Scirpus juncoides. The assay is described as above. The settings on record: for Herbicidal rate (%) Scirpus juncoides: 120 g/10a active ingredient, assessed 14 days after treatment, dry weight vs untreated area; for herbicidal rate, Scirpus juncoides: 120 g/10a, rated 14 days after treatment, paddy soil pots. Put shortly:
as §2

For assay [6], the system named is broad leaf weeds (Lindernia pyxidaria and Monochoria vaginalis). The assay is described as above. As to conditions: for Herbicidal rate (%) Lindernia pyxidaria / Herbicidal rate (%) Monochoria vaginalis: 120 g/10a active ingredient, assessed 14 days after treatment, dry weight vs untreated area; for herbicidal rate, Lindernia pyxidaria / herbicidal rate, Monochoria vaginalis: 120 g/10a, rated 14 days after treatment, paddy soil pots. In outline: as §2

The subject of assay [7] is Amaranthus viridis. Put plainly: Test Example 3: herbicidal effect test by treatment of dry field farming soil (one day after seeding). The settings on record: 120 g/10a active ingredient, evaluated 14 days after treatment. Here is the method:
(§3) This test was conducted in a double system per one agent solution concentration area, and the herbicidal rates (%) were determined by the following equation (Math. 1) on 14 days after the treatment with the agents. Herbicidal Rate (%)={1-(Average Dry Weight (g) of Plant of Treated Area)/(Average Dry Weight (g) of Plant of Untreated Area)}×100 [Math. 1]
(§4) Herbicidal Effect Test by Treatment of Dry Field Farming Soil
(§5) Pots with a size of 36 cm^2 were filled with a dry field farming soil (alluvium). The soil of the top layer of 1 cm and seeds of weeds, namely southern crabgrass, Echinochloa crus-galli, Chenopodium album and Amaranthus viridis, 20 seeds each, were evenly mixed, and the top layer was gently pressed. Emulsions prepared using the compounds in Table 5 below according to Formulation Example 5 were diluted with water one day after seeding, and the water-diluted agent solutions were sprayed to the soil surfaces at a ratio of 100 liters per 10 ares. The converted amount of the applied active ingredient corresponded to 120 g per 10 ares. The herbicidal effects were evaluated by the same standard as that in Test Example 1 on 14 days after the treatment with the agents. […] The compound numbers in Table 5 are the same as those in Table 1 and Table 2 above.

Assay [8] has as its system Chenopodium album. The assay is described as above. The settings on record: 120 g/10a active ingredient, evaluated 14 days after treatment. On the procedure: as §3, §4, §5
Assay [9] relates to Echinochloa crus-galli. Described as above. As to conditions: 120 g/10a active ingredient, evaluated 14 days after treatment. Here is the method: as §3, §4, §5
Assay [10] concerns southern crabgrass. Described as above. The settings on record: 120 g/10a active ingredient, evaluated 14 days after treatment. Here is the method: as §3, §4, §5
[11] abbreviates: 120 g/10a active ingredient, dry weight vs untreated area, 14 days after treatment.
The mark [12] stands for this setting: Lindernia pyxidaria, 120 g/10a active ingredient, dry weight vs untreated area, 14 days after treatment.
The mark [13] stands for this setting: Monochoria vaginalis, 120 g/10a active ingredient, dry weight vs untreated area, 14 days after treatment.
Where [14] appears, read: 120 g/10a active ingredient, 14 days after treatment, dry weight vs untreated area.
[15] abbreviates: Lindernia pyxidaria, 120 g/10a active ingredient, 14 days after treatment, dry weight vs untreated area.
Where [16] appears, read: Monochoria vaginalis, 120 g/10a active ingredient, 14 days after treatment, dry weight vs untreated area.

With `CC(C)n1oc(=O)c(Cc2ccccc2NS(=O)(=O)C(F)(F)F)c1C1CC1` [Compound 1-83], the “Herbicidal rate (%) Echinochloa crus-galli” value in [1] (setting [11]) is given as 90%; in [4], 40%. Also, the “Herbicidal rate (%) Scirpus juncoides” value in assay [2] (setting [11]) is listed as 90%; in [5], 60%. The “Herbicidal rate (%) Lindernia pyxidaria” value in assay [3] (setting [12]) came to 100%; in assay [6], 40%. The “Herbicidal rate (%) Monochoria vaginalis” value in assay [3] (setting [13]) is 70%; in assay [6] it was 40%. Moreover, the “herbicidal rate, Amaranthus viridis” value in [7] is listed as 40%. Also, in [8], the “herbicidal rate, Chenopodium album” value was 40%. Moreover, in [9], the “herbicidal rate, Echinochloa crus-galli” value worked out at 50%. In addition, in assay [10], the “herbicidal rate, southern crabgrass” value is reported as 40%.
Turning to `CCn1oc(=O)c(Cc2ccccc2NS(=O)(=O)C(F)(F)F)c1C` [Compound 1-98], the entries for the “Herbicidal rate (%) Echinochloa crus-galli” value in [1] (setting [11]) and in assay [4] were 100% and 80%, respectively. Also, the “Herbicidal rate (%) Scirpus juncoides” value in [2] (setting [11]) and in [5] was 90% throughout. For the same compound, the entries for the “Herbicidal rate (%) Lindernia pyxidaria” value in [3] (setting [12]) and in assay [6] were 100% and 60%, respectively. The “Herbicidal rate (%) Monochoria vaginalis” value was 100% in assay [3] (setting [13]) and 60% in assay [6]. Further, the “herbicidal rate, Amaranthus viridis” value in [7] came to 0%. In addition, the “herbicidal rate, Chenopodium album” value in assay [8] is on record as 0%. Further, the “herbicidal rate, Echinochloa crus-galli” value in assay [9] is 90%. Further, the “herbicidal rate, southern crabgrass” value in assay [10] came to 90%.
Consider `Cc1c(Cc2ccccc2NS(=O)(=O)C(F)(F)F)c(=O)on1CC1CC1` [Compound 1-143], for which the “Herbicidal rate (%) Echinochloa crus-galli” value in [1] (setting [11]) and in [4] was 90% in each case. Besides, the “Herbicidal rate (%) Scirpus juncoides” value in assay [2] (setting [11]) and in assay [5] was 90% in each case. Also, the “Herbicidal rate (%) Lindernia pyxidaria” value was 100% in assay [3] (setting [12]) and 70% in assay [6]. For the same compound, the “Herbicidal rate (%) Monochoria vaginalis” value is recorded as 100% in assay [3] (setting [13]) and 80% in [6]. For the same compound, the “herbicidal rate, Amaranthus viridis” value in assay [7] amounted to 60%. Besides, the “herbicidal rate, Chenopodium album” value in [8] is 0%. Also, in assay [9], the “herbicidal rate, Echinochloa crus-galli” value is 50%. Moreover, in assay [10], the “herbicidal rate, southern crabgrass” value is 40%.
As to `Cc1c(Cc2ccccc2NS(=O)(=O)C(F)(F)F)c(=O)on1CCOCC(C)C` [Compound 1-156], the “Herbicidal rate (%) Echinochloa crus-galli” value in [1] (setting [11]) is 100%; in assay [4], 80%. For the same compound, the “Herbicidal rate (%) Scirpus juncoides” value in assay [2] (setting [11]) was 100%; in assay [5] it was 90%. Also, the “Herbicidal rate (%) Lindernia pyxidaria” value in assay [3] (setting [12]) and in [6] was 100% in each case. Also, the “Herbicidal rate (%) Monochoria vaginalis” value in [3] (setting [13]) worked out at 80%; in assay [6], 100%. Further, the “herbicidal rate, Amaranthus viridis” value in [7] was 60%. Besides, in assay [8], the “herbicidal rate, Chenopodium album” value amounted to 60%. For the same compound, the “herbicidal rate, Echinochloa crus-galli” value in assay [9] is 80%. In assay [10], the “herbicidal rate, southern crabgrass” value was 80%.
With `Cc1c(Cc2ccccc2NS(=O)(=O)C(F)(F)F)c(=O)on1CCSC(C)C` [Compound 1-166], the “Herbicidal rate (%) Echinochloa crus-galli” value in [1] (setting [11]) and in [4] was 100% throughout. For the same compound, the “Herbicidal rate (%) Scirpus juncoides” value in [2] (setting [11]) and in assay [5] was 90% each time. The “Herbicidal rate (%) Lindernia pyxidaria” value in assay [3] (setting [12]) and in assay [6] was 90% each time. Moreover, the “Herbicidal rate (%) Monochoria vaginalis” value in [3] (setting [13]) and in assay [6] was 90% in each case. Also, the “herbicidal rate, Amaranthus viridis” value in [7] is 60%. In addition, in assay [8], the “herbicidal rate, Chenopodium album” value worked out at 60%. Also, the “herbicidal rate, Echinochloa crus-galli” value in assay [9] came out at 90%. Also, the “herbicidal rate, southern crabgrass” value in [10] came to 90%.
As to `Cc1c(Cc2ccccc2NS(=O)(=O)C(F)(F)F)c(=O)on1C(C)c1ccccc1` (stereo not drawn) [Compound 1-203], the “Herbicidal rate (%) Echinochloa crus-galli” value in [1] (setting [11]) and in assay [4] was 90% in each case. Moreover, the “Herbicidal rate (%) Scirpus juncoides” value in assay [2] (setting [11]) and in assay [5] was 90% throughout. Moreover, the “Herbicidal rate (%) Lindernia pyxidaria” value in [3] (setting [12]) stood at 100%; in assay [6], 90%. The “Herbicidal rate (%) Monochoria vaginalis” value in assay [3] (setting [13]) amounted to 100%; in [6] it was 90%. The “herbicidal rate, Amaranthus viridis” value in assay [7] worked out at 40%. Also, the “herbicidal rate, Chenopodium album” value in [8] is on record as 40%. For the same compound, the “herbicidal rate, Echinochloa crus-galli” value in assay [9] stood at 60%. In [10], the “herbicidal rate, southern crabgrass” value was 90%.
`Cc1c(Cc2ccccc2NS(=O)(=O)C(F)(F)F)c(=O)on1CCc1ccccc1` [Compound 1-216]: the “Herbicidal rate (%) Echinochloa crus-galli” value in [1] (setting [11]) and in assay [4] was 90% each time. The figures for the “Herbicidal rate (%) Scirpus juncoides” value in assay [2] (setting [11]) and in assay [5] were 100% and 90%, respectively. For the same compound, the “Herbicidal rate (%) Lindernia pyxidaria” value in assay [3] (setting [12]) and in [6] was 100% throughout. Besides, the “Herbicidal rate (%) Monochoria vaginalis” value in assay [3] (setting [13]) and in assay [6] was 100% throughout. Also, in assay [7], the “herbicidal rate, Amaranthus viridis” value came out at 40%. Also, the “herbicidal rate, Chenopodium album” value in [8] was 0%. Besides, the “herbicidal rate, Echinochloa crus-galli” value in [9] stood at 60%. Further, in assay [10], the “herbicidal rate, southern crabgrass” value is 70%.
For the compound `Cc1c(Cc2ccccc2N(S(=O)(=O)C(F)(F)F)S(=O)(=O)C(F)(F)F)c(=O)on1C(C)c1ccsc1` (stereo not drawn) [Compound 1-1057], in assay [1] (setting [14]), the “Herbicidal rate (%) Echinochloa crus-galli” value stood at 90%. The “Herbicidal rate (%) Scirpus juncoides” value in [2] (setting [14]) was determined as 90%. Besides, the “Herbicidal rate (%) Lindernia pyxidaria” value in [3] (setting [15]) is recorded as 80%. Also, the “Herbicidal rate (%) Monochoria vaginalis” value in [3] (setting [16]) is 80%. Also, in [4], the “herbicidal rate, Echinochloa crus-galli” value amounted to 80%. Also, the “herbicidal rate, Scirpus juncoides” value in [5] turned out to be 80%. Also, in [6], the “herbicidal rate, Lindernia pyxidaria” value was found to be 60% and the “herbicidal rate, Monochoria vaginalis” value was found to be 80%.
For `Cc1c(Cc2ccccc2N(S(=O)(=O)C(F)(F)F)S(=O)(=O)C(F)(F)F)c(=O)on1CCOc1ccccc1` [Compound 1-1058], in [1] (setting [14]), the “Herbicidal rate (%) Echinochloa crus-galli” value amounted to 90%. Moreover, in assay [2] (setting [14]), the “Herbicidal rate (%) Scirpus juncoides” value was 90%. Moreover, in [3] (setting [15]), the “Herbicidal rate (%) Lindernia pyxidaria” value is listed as 80%. Also, the “Herbicidal rate (%) Monochoria vaginalis” value in assay [3] (setting [16]) stood at 70%. Also, the “herbicidal rate, Echinochloa crus-galli” value in assay [4] turned out to be 90%. The “herbicidal rate, Scirpus juncoides” value in assay [5] is 80%. In addition, in assay [6], the “herbicidal rate, Lindernia pyxidaria” value is recorded as 80% and the “herbicidal rate, Monochoria vaginalis” value was 90%.
For `Cc1c(Cc2ccccc2N(S(=O)(=O)C(F)(F)F)S(=O)(=O)C(F)(F)F)c(=O)on1CCOCc1ccccc1` [Compound 1-1059], the “Herbicidal rate (%) Echinochloa crus-galli” value in assay [1] (setting [14]) is recorded as 100%. Moreover, the “Herbicidal rate (%) Scirpus juncoides” value in assay [2] (setting [14]) is 80%. For the same compound, the “Herbicidal rate (%) Lindernia pyxidaria” value in assay [3] (setting [15]) came out at 80%. Also, in [3] (setting [16]), the “Herbicidal rate (%) Monochoria vaginalis” value worked out at 90%. In addition, the “herbicidal rate, Echinochloa crus-galli” value in assay [4] amounted to 90%. Besides, in [5], the “herbicidal rate, Scirpus juncoides” value turned out to be 70%. In addition, in assay [6], the “herbicidal rate, Lindernia pyxidaria” value was found to be 40% and the “herbicidal rate, Monochoria vaginalis” value worked out at 70%.
